From EP2687213B1, “Solid forms comprising (+)-2-[1-(3-ethoxy-4-methoxyphenyl)-2-methylsulfonylethyl]-4-acetylaminoisoindoline-1,3-dione, compositions thereof, and uses thereof” (CELGENE CORPORATION, priority 2008, dated 2009)

Legend:
[1] = system: bovine PDE1; experiment: PDE1 enzyme assay; type: biochemical; conditions: from PDE inhibition data of Table 1
[2] = molecular target: human PDE2 (Homo sapiens, UniProt O00408); experiment: PDE2 enzyme assay; type: biochemical; conditions: from PDE inhibition data of Table 1
Sequence of human PDE2 (O00408 whole entry): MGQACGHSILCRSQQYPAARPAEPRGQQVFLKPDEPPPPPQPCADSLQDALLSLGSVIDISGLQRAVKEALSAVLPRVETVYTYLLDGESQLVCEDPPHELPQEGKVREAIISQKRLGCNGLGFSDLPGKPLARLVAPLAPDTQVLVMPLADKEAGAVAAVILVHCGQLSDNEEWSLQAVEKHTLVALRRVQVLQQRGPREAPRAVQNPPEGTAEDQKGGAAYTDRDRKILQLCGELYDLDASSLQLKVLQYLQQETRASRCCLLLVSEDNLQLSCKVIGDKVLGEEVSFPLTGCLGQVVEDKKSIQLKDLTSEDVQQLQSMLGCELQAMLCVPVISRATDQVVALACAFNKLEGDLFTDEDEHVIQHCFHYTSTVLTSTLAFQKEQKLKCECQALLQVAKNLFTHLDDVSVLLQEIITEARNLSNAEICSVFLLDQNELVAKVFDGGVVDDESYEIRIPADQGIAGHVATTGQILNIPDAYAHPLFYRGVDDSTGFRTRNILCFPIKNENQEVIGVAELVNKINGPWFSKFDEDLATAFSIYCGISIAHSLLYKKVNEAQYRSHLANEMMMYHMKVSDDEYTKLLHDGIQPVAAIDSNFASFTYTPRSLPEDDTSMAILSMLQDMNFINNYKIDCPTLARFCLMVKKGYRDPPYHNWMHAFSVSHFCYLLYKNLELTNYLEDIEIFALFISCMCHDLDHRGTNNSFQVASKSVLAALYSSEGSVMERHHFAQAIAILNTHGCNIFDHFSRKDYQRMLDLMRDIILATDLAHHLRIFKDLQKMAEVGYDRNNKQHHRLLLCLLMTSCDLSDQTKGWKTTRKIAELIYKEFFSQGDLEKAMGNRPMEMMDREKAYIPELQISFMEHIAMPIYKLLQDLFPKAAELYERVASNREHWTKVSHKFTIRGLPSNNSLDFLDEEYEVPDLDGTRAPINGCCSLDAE

[3] = molecular target: PDE3 from human platelets (Homo sapiens, UniProt Q14432); experiment: PDE3 enzyme assay; type: biochemical; conditions: from PDE inhibition data of Table 1
Sequence of PDE3 from human platelets (Q14432 whole entry): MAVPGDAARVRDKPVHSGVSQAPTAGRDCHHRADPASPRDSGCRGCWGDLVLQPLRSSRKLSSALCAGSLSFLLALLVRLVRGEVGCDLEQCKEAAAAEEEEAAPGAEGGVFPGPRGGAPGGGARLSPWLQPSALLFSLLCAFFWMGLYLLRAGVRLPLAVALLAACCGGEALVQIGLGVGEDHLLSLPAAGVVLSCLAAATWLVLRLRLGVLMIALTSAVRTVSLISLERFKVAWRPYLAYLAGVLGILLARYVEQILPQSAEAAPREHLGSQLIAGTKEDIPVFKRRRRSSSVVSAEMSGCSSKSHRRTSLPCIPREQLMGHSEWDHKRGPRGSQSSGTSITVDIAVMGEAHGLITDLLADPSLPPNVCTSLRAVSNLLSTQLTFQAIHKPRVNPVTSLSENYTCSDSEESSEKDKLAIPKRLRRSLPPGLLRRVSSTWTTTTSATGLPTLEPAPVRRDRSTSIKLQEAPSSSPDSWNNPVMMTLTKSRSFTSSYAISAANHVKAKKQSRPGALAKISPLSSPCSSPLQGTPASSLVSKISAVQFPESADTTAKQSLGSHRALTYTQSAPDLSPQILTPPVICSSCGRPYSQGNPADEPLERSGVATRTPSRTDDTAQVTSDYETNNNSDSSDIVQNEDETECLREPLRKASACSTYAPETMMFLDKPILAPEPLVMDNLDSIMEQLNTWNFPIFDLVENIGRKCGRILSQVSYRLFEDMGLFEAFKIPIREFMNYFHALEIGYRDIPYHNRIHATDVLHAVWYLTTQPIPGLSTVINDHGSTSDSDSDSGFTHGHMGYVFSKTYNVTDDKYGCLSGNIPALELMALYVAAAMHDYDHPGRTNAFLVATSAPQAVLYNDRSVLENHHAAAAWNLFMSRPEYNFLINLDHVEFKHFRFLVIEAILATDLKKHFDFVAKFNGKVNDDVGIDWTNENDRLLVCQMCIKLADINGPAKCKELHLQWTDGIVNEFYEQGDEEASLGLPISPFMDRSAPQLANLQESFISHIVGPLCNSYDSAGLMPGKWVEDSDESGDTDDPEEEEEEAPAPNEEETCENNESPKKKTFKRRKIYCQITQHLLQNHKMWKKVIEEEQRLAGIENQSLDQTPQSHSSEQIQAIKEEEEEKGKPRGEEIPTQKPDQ

[4] = molecular target: PDE5 from human platelets (Homo sapiens, UniProt O76074); experiment: PDE5 enzyme assay; type: biochemical; conditions: from PDE inhibition data of Table 1
[5] = molecular target: PDE7 purified from Hut78 human T cells (Homo sapiens, UniProt Q13946); experiment: PDE7 enzyme assay; type: biochemical; conditions: from PDE inhibition data of Table 1
Sequence of PDE7 purified from Hut78 human T cells (Q13946 whole entry): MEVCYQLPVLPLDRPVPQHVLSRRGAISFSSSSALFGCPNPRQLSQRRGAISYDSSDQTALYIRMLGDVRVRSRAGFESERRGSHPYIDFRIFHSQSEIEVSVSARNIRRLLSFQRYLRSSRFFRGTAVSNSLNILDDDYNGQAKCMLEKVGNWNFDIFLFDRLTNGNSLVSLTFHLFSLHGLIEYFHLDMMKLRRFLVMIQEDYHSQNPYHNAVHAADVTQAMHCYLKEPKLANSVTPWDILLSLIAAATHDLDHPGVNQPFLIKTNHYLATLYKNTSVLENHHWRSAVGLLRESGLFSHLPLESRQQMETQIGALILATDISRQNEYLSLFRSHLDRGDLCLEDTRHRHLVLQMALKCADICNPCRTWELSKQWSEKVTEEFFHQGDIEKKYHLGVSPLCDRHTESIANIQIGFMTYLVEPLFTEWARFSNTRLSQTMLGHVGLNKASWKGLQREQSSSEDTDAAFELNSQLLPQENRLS
Procedure: PDE7 is a cAMP-selective PDE expressed mainly in T cells and in skeletal muscle. T cell-derived cytokines such as IL-2 and IFN-γ are potentially regulatable via PDE7 inhibition. […] Compounds were tested against the PDE7 preparation in the presence of 10 nM cAMP as described for PDE4 in Table 1.

[6] = Solid form stability studies (XRPD); type: physicochemical
Procedure: Stability Studies. The stabilities of Forms A, B, C and D were studied by exposing the solid samples to the stress condition of 40 °C / 75% RH for four weeks. Moreover, the stabilities of Forms A, B, C and D in different solvents were studied by equilibration in different solvents at 40 °C for four weeks. The slurries then were filtered and dried in the air. Solid samples obtained from the stability experiments were analyzed by XRPD and DSC.

[7] = Solid form interconversion studies (slurry, XRPD); type: physicochemical; conditions: EQ in acetone:ethanol (1:1) at 25 °C, at least 2 days
Procedure: Interconversion Studies. Interconversion experiments were performed by making slurries of a solid form in a saturated solvent. The slurries were agitated for at least 2 days at about 25 °C. The saturated solution was removed by filtration and the solid was dried in the air.

[8] = Hygroscopicity studies (DVS moisture sorption/desorption); type: physicochemical
Procedure: Hygroscopicity studies. The hygroscopicity of various solid forms was studied using a Surface Measurement Systems DVS instrument. Typically a sample size of between about 10-50 mg was loaded into the DVS instrument sample pan and the sample was analyzed on a DVS automated sorption analyzer at about 25 °C. The relative humidity was increased in increments of about 10% from about 0% to about 95% RH. The relative humidity was then decreased in a similar manner to accomplish a full adsorption/desorption cycle. The mass was recorded at periodic intervals throughout the experiment.

[9] = Compression studies (2000 psi, XRPD); conditions: 2000 psi for at least one minute
[10] = molecular target: T1, PDE6 from bovine retinal rod outer segments (Bos taurus, UniProt P11541+P23439); experiment: PDE6 enzyme assay; type: biochemical; conditions: from PDE inhibition data of Table 1
T1 construct: PDE6 from bovine retinal rod outer segments; from tissue; host or cells: bovine retinal rod outer segments
T1 sequence (P11541 2-856 limits assumed): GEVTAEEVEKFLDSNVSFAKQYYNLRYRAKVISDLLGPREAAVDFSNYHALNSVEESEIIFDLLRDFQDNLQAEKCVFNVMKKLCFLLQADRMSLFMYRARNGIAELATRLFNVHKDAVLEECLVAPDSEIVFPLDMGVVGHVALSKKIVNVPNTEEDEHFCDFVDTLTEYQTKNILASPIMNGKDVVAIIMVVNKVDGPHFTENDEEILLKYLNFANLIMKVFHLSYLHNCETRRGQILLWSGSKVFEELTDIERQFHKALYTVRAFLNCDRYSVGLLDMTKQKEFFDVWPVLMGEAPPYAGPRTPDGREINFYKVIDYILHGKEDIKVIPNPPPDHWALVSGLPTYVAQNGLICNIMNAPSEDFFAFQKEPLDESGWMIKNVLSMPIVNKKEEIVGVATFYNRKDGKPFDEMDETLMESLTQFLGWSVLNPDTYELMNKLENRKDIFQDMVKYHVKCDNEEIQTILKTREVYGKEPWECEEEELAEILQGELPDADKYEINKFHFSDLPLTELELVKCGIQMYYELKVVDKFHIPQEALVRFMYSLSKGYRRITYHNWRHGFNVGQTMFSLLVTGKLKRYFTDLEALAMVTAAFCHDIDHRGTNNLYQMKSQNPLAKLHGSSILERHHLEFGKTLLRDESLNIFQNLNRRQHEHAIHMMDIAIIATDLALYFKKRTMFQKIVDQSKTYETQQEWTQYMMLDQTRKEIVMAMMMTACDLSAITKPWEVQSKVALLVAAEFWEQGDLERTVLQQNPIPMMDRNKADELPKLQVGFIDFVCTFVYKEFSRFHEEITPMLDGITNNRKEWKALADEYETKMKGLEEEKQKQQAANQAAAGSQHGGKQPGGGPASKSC
T1 sequence (P23439 2-850 limits assumed): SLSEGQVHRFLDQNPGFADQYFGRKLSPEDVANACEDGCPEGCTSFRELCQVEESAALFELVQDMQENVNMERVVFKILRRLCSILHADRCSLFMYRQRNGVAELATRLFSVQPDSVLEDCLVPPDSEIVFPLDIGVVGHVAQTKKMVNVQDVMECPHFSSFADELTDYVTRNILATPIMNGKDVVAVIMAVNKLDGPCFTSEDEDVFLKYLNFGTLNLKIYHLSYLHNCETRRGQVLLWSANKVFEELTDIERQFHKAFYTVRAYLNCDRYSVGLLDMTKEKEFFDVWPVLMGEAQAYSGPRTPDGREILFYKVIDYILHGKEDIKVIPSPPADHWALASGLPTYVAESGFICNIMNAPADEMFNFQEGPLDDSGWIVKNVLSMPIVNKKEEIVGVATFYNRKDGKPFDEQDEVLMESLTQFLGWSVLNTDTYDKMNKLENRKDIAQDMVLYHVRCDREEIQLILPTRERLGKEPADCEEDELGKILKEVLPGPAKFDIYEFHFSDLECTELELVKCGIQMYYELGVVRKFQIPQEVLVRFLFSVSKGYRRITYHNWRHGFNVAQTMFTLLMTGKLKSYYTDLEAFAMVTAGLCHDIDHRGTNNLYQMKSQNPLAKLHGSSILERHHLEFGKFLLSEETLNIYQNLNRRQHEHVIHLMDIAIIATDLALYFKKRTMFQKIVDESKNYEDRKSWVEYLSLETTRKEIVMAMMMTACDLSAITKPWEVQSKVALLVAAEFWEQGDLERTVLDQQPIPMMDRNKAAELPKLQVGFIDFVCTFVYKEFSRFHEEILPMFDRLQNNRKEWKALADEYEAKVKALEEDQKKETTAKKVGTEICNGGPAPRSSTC

| PDE Specificity Ratio PDE4/PDE6 [10] [fold] | Compound | PDE Specificity Ratio PDE4/PDE1 [1] [fold] | PDE Specificity Ratio PDE4/PDE2 [2] [fold] | PDE Specificity Ratio PDE4/PDE3 [3] [fold] | PDE Specificity Ratio PDE4/PDE5 [4] [fold] | PDE Specificity Ratio PDE7 IC50/PDE4 IC50 [5] [fold] | Analysis by XRPD (resulting form) ([6]; 40 °C / 75% RH, 4 weeks) | Analysis by XRPD (resulting form) ([6]; EQ in ethanol at 40 °C for 4 weeks) | Analysis by XRPD (resulting form) ([6]; EQ in heptane at 40 °C for 4 weeks) | Analysis by XRPD (resulting form) ([6]; EQ in toluene at 40 °C for 4 weeks) | Analysis by XRPD (resulting form) ([6]; EQ in water at 40 °C for 4 weeks) | Analysis by XRPD (resulting form) [7] | solid-state transformation after full adsorption/desorption cycle (XRPD) ([8]; DVS, 0% to 95% RH and back) | mass change of the starting mass of the sample ([8]; RH increased from about 0% to about 95% RH, about 25 °C) | hygroscopicity ([8]; moisture sorption analysis, 0% to 95% RH) | physical stability upon compression (XRPD) [9] |
| --- | --- | --- | --- | --- | --- | --- | --- | --- | --- | --- | --- | --- | --- | --- | --- | --- |
| – | CCOc1cc(C(CS(C)(=O)=O)N2C(=O)c3cccc(NC(C)=O)c3C2=O)ccc1OC (racemic) [Racemic Compound, 2-[1-(3-Ethoxy-4-methoxyphenyl)-2-methylsulfonylethyl]-4-acetylaminoisoindoline-1,3-dione] | >2700 | >800 | >670 | >12000 | 270 | – | – | – | – | – | – | – | – | – | – |
| – | CCOc1cc(C(CS(C)(=O)=O)N2C(=O)c3cccc(NC(C)=O)c3C2=O)ccc1OC (single isomer, unassigned; (+)) [Form D, (+)-2-[1-(3-ethoxy-4-methoxyphenyl)-2-methylsulfonylethyl]-4-acetylaminoisoindoline-1,3-dione] | – | – | – | – | – | stable | converts to Form B | converts to Form B | converts to Form C | converts to Form B | Form B | none of the forms analyzed underwent substantial solid-state transformation | about 1.5% | slightly hygroscopic | substantially physically stable |
| >250 | CCOc1cc([C@H](CS(C)(=O)=O)N2C(=O)c3cccc(NC(C)=O)c3C2=O)ccc1OC [Compound B] | >50 | >260 | >45 | >39000 | – | – | – | – | – | – | – | – | – | – | – |
